The test relates to HL-60. Kind of test: Tested in vitro for the anticancer activity against HL-60 leukemia cells. The test is classed as functional, cell-based. The note with it: Homo sapiens.

≈ marks a conversion by molar mass, not a printed value.

The compound `CC(=O)O[C@H]1C(=O)[C@@]2(C)[C@H]([C@H](OC(=O)c3ccccc3)[C@]3(O)C[C@H](OC(=O)[C@H](OP(=O)(O)OCCN)[C@@H](NC(=O)c4ccccc4)c4ccccc4)C(C)=C1C3(C)C)[C@]1(OC(C)=O)CO[C@@H]1C[C@@H]2O` yielded an IC50 of 0.8 µg/mL (≈ 0.819 µM).

With `CC(=O)O[C@H]1C(=O)[C@@]2(C)[C@H]([C@H](OC(=O)c3ccccc3)[C@]3(O)C[C@H](OC(=O)[C@H](OP(=O)(O)OCCCCN)[C@@H](NC(=O)c4ccccc4)c4ccccc4)C(C)=C1C3(C)C)[C@]1(OC(C)=O)CO[C@@H]1C[C@@H]2O`, the IC50 was 0.3 µg/mL (≈ 0.299 µM).

With `CC(=O)O[C@H]1C(=O)[C@@]2(C)[C@H]([C@H](OC(=O)c3ccccc3)[C@]3(O)C[C@H](OC(=O)[C@H](O)[C@@H](NC(=O)c4ccccc4)c4ccccc4)C(C)=C1C3(C)C)[C@]1(OC(C)=O)CO[C@@H]1C[C@@H]2O` [PACLITAXEL], the IC50 is 0.001 µg/mL (≈ 0.00117 µM).

The compound `CC(=O)O[C@H]1C(=O)[C@@]2(C)[C@H]([C@H](OC(=O)c3ccccc3)[C@]3(O)C[C@H](OC(=O)[C@H](OP(=O)(O)OCCCN)[C@@H](NC(=O)c4ccccc4)c4ccccc4)C(C)=C1C3(C)C)[C@]1(OC(C)=O)CO[C@@H]1C[C@@H]2O` yielded an IC50 of 4 µg/mL (≈ 4.04 µM).

The values above are taken from ChEMBL document CHEMBL1151549, “Design and synthesis of new taxol-containing aminophosphates as protaxols” (Bioorg Med Chem Lett, 1997).
